Earlier results on 2 compounds are cited in patent US20140296830A1 (priority 2013, published 2014).

For series [1] the following is noted: pH 4.
For series [2] the following is noted: versus mepivacaine and lidocaine.

SMILES strings stand for the structures.

In the case of `CSCC[C@@H]1NC(=O)[C@H](CC(C)C)NC(=O)[C@H](CCCNC(=N)N)NC(=O)[C@H](CO)NC(=O)[C@@H]2CSSC[C@@H]3NC(=O)[C@H](CO)NC(=O)CNC(=O)[C@H]([C@@H](C)O)NC(=O)[C@H](CSSC[C@H](N)C(=O)N[C@@H](CCCCN)C(=O)NCC(=O)N[C@@H](CCCCN)C(=O)NCC(=O)N[C@@H](C)C(=O)N[C@@H](CCCCN)C(=O)N2)NC(=O)[C@H](CSSC[C@@H](C(N)=O)NC(=O)[C@H](CCCCN)NC(=O)CNC(=O)[C@H](CO)NC(=O)[C@H](CCCNC(=N)N)NC3=O)NC(=O)[C@H](CC(=O)O)NC(=O)[C@H](Cc2ccc(O)cc2)NC1=O` [ziconotide], the solution stability entry in series [1] is “stable at 45 °C for weeks”.
On to `CCCCN1CCCCC1C(=O)Nc1c(C)cccc1C` (centres unmarked) [bupivacaine], for which, in series [2], the “potency relative to mepivacaine and lidocaine” value is “about 4 times”.
